Bridge positions count the residues as written; N and C are the ends. Square brackets hold non-standard residues; d marks the D form. Ends that are not written are not given here. Peptide text beside a SMILES is read from it. A value given as a limit tells only on which side of the number the result lay.

In the first assay the test system is S. aureus DPC5246. Format: cell-based, Staphylococcus aureus. Conditions: DPC5246, pH 6.8. The procedure:
Peptides were resuspended at 1000 µM in 50 mM sodium phosphate buffer pH 6.8 and checked for purity by MALDI-TOF-MS. Peptides were serially diluted 1 in 4 to give a dilution series of 250, 62.50, 15.63, 3.91, 0.98 and 0.24 µM and assayed by the agar well diffusion assay described by Ryan et al.[19]. Briefly, 50 µl aliquots of each peptide concentration were plated on a S. aureus DPC5246 indicator plate and the plate incubated at 37 °C. Peptide activity (Minimum Inhibitory Concentration (MIC)) was taken as the lowest concentration of peptide to give a zone of inhibition. All assays were performed in triplicate. The dilution series values were rounded to the nearest whole number to give 1000, 250, 63, 16, 4, 1 and 0.25 µM and data is colour coded for ease of interpretation.
On to `CSCC[C@@H]1NC(=O)CNC(=O)[C@H]([C@@H](C)O)NC(=O)[C@@H]2CCCN2C(=O)[C@H](CCSC)NC(=O)CNC(=O)[C@H](CC(N)=O)NC(=O)[C@H](CC(N)=O)NC(=O)[C@H](Cc2ccc(O)cc2)NC(=O)[C@H](C(C)C)NC(=O)[C@H](CCCNC(=N)N)NC(=O)[C@@H](NC(=O)[C@@H](N)CCCNC(=N)N)CSSC[C@@H](C(=O)O)NC(=O)[C@H](Cc2c[nH]c3ccccc23)NC(=O)[C@H](CCCNC(=N)N)NC(=O)[C@H](Cc2ccc(O)cc2)NC1=O` [R6-C22] (H-RCRVYNNGMPTGMYRWC-OH; disulfide 2-17; N-terminus assumed), for which the “Activity (Minimum Inhibitory Concentration, MIC)” value came out at 63 µM.

On to KRKKHRARVYNNGMPTGMYRWA [C7A-C22A], for which the “Activity (Minimum Inhibitory Concentration, MIC)” value is reported as 16 µM.

Take `CSCC[C@@H]1NC(=O)CNC(=O)[C@H]([C@@H](C)O)NC(=O)[C@@H]2CCCN2C(=O)[C@H](C)NC(=O)CNC(=O)[C@H](CC(N)=O)NC(=O)[C@H](CC(N)=O)NC(=O)[C@H](Cc2ccc(O)cc2)NC(=O)[C@H](C(C)C)NC(=O)[C@H](CCCNC(=N)N)NC(=O)[C@@H](NC(=O)[C@H](CCCNC(=N)N)NC(=O)[C@H](Cc2c[nH]cn2)NC(=O)[C@H](CCCCN)NC(=O)[C@H](CCCCN)NC(=O)[C@H](CCCNC(=N)N)NC(=O)[C@@H](N)CCCCN)CSSC[C@@H](C(=O)O)NC(=O)[C@H](Cc2c[nH]c3ccccc23)NC(=O)[C@H](CCCNC(=N)N)NC(=O)[C@H](Cc2ccc(O)cc2)NC1=O` [M14A] (H-KRKKHRCRVYNNGAPTGMYRWC-OH; disulfide 7-22): the “Activity (Minimum Inhibitory Concentration, MIC)” value was 16 µM.

For `CSCC[C@@H]1NC(=O)CNC(=O)[C@H]([C@@H](C)O)NC(=O)[C@@H]2CCCN2C(=O)[C@H](CCSC)NC(=O)CNC(=O)[C@H](CC(N)=O)NC(=O)[C@H](CC(N)=O)NC(=O)[C@H](Cc2ccc(O)cc2)NC(=O)[C@H](C(C)C)NC(=O)[C@H](CCCNC(=N)N)NC(=O)[C@@H](NC(=O)[C@H](CCCNC(=N)N)NC(=O)[C@H](Cc2c[nH]cn2)NC(=O)[C@H](CCCCN)NC(=O)[C@H](CCCCN)NC(=O)[C@H](CCCNC(=N)N)NC(=O)[C@@H](N)CCCCN)CSSC[C@@H](C(=O)O)NC(=O)[C@H](C)NC(=O)[C@H](CCCNC(=N)N)NC(=O)[C@H](Cc2ccc(O)cc2)NC1=O` [W21A] (H-KRKKHRCRVYNNGMPTGMYRAC-OH; disulfide 7-22), the “Activity (Minimum Inhibitory Concentration, MIC)” value turned out to be 1 µM.

For the molecule `CSCC[C@@H]1NC(=O)CNC(=O)[C@H](CC(N)=O)NC(=O)[C@H](CC(N)=O)NC(=O)[C@H](Cc2ccc(O)cc2)NC(=O)[C@H](C(C)C)NC(=O)[C@H](CCCNC(=N)N)NC(=O)[C@@H](NC(=O)[C@H](CCCNC(=N)N)NC(=O)[C@H](Cc2c[nH]cn2)NC(=O)[C@H](CCCCN)NC(=O)[C@H](CCCCN)NC(=O)[C@H](CCCNC(=N)N)NC(=O)[C@@H](N)CCCCN)CSSC[C@@H](C(=O)O)NC(=O)[C@H](Cc2c[nH]c3ccccc23)NC(=O)[C@H](CCCNC(=N)N)NC(=O)[C@H](Cc2ccc(O)cc2)NC(=O)[C@@H](CCSC)NC(=O)CNC(=O)[C@H]([C@@H](C)O)NC(=O)[C@@H]2CCCN2C1=O` [M18Md] (H-KRKKHRCRVYNNGMPTG[dM]YRWC-OH; disulfide 7-22; N-terminus assumed), the “Activity (Minimum Inhibitory Concentration, MIC)” value amounted to 16 µM.

For `CSCC[C@@H]1NC(=O)CNC(=O)[C@H]([C@@H](C)O)NC(=O)[C@@H]2CCCN2C(=O)[C@H](CCSC)NC(=O)CNC(=O)[C@H](CC(N)=O)NC(=O)[C@@H](CC(N)=O)NC(=O)[C@H](Cc2ccc(O)cc2)NC(=O)[C@H](C(C)C)NC(=O)[C@H](CCCNC(=N)N)NC(=O)[C@@H](NC(=O)[C@H](CCCNC(=N)N)NC(=O)[C@H](Cc2c[nH]cn2)NC(=O)[C@H](CCCCN)NC(=O)[C@H](CCCCN)NC(=O)[C@H](CCCNC(=N)N)NC(=O)[C@@H](N)CCCCN)CSSC[C@@H](C(=O)O)NC(=O)[C@H](Cc2c[nH]c3ccccc23)NC(=O)[C@H](CCCNC(=N)N)NC(=O)[C@H](Cc2ccc(O)cc2)NC1=O` [N11Nd] (H-KRKKHRCRVY[dN]NGMPTGMYRWC-OH; disulfide 7-22; N-terminus assumed), the “Activity (Minimum Inhibitory Concentration, MIC)” value is recorded as more than 1000 µM.

Take `CSCC[C@@H]1NC(=O)CNC(=O)[C@H]([C@@H](C)O)NC(=O)[C@@H]2CCCN2C(=O)[C@H](CCSC)NC(=O)CNC(=O)[C@H](CC(N)=O)NC(=O)[C@H](CC(N)=O)NC(=O)[C@H](Cc2ccc(O)cc2)NC(=O)[C@H](C(C)C)NC(=O)[C@H](CCCNC(=N)N)NC(=O)[C@@H](NC(=O)[C@H](CCCNC(=N)N)NC(=O)[C@@H](N)Cc2c[nH]cn2)CSSC[C@@H](C(=O)O)NC(=O)[C@H](Cc2c[nH]c3ccccc23)NC(=O)[C@H](CCCNC(=N)N)NC(=O)[C@H](Cc2ccc(O)cc2)NC1=O` [H5-C22] (H-HRCRVYNNGMPTGMYRWC-OH; disulfide 3-18; N-terminus assumed): the “Activity (Minimum Inhibitory Concentration, MIC)” value came out at 16 µM.

For the molecule `CSCC[C@@H]1NC(=O)CNC(=O)[C@H]([C@@H](C)O)NC(=O)[C@@H]2CCCN2C(=O)[C@@H](CCSC)NC(=O)CNC(=O)[C@H](CC(N)=O)NC(=O)[C@H](CC(N)=O)NC(=O)[C@H](Cc2ccc(O)cc2)NC(=O)[C@H](C(C)C)NC(=O)[C@H](CCCNC(=N)N)NC(=O)[C@@H](NC(=O)[C@H](CCCNC(=N)N)NC(=O)[C@H](Cc2c[nH]cn2)NC(=O)[C@H](CCCCN)NC(=O)[C@H](CCCCN)NC(=O)[C@H](CCCNC(=N)N)NC(=O)[C@@H](N)CCCCN)CSSC[C@@H](C(=O)O)NC(=O)[C@H](Cc2c[nH]c3ccccc23)NC(=O)[C@H](CCCNC(=N)N)NC(=O)[C@H](Cc2ccc(O)cc2)NC1=O` [M14Md] (H-KRKKHRCRVYNNG[dM]PTGMYRWC-OH; disulfide 7-22; N-terminus assumed), the “Activity (Minimum Inhibitory Concentration, MIC)” value is on record as 63 µM.

For the molecule `CSCC[C@@H]1NC(=O)CNC(=O)[C@H]([C@@H](C)O)NC(=O)[C@@H]2CCCN2C(=O)[C@H](CCSC)NC(=O)CNC(=O)[C@H](CC(N)=O)NC(=O)[C@H](CC(N)=O)NC(=O)[C@H](Cc2ccc(O)cc2)NC(=O)[C@H](C(C)C)NC(=O)[C@H](CCCNC(=N)N)NC(=O)[C@@H](NC(=O)[C@H](CCCNC(=N)N)NC(=O)[C@H](Cc2c[nH]cn2)NC(=O)[C@H](C)NC(=O)[C@H](CCCCN)NC(=O)[C@H](CCCNC(=N)N)NC(=O)[C@@H](N)CCCCN)CSSC[C@@H](C(=O)O)NC(=O)[C@H](Cc2c[nH]c3ccccc23)NC(=O)[C@H](CCCNC(=N)N)NC(=O)[C@H](Cc2ccc(O)cc2)NC1=O` [K4A] (H-KRKAHRCRVYNNGMPTGMYRWC-OH; disulfide 7-22), the “Activity (Minimum Inhibitory Concentration, MIC)” value is 1 µM.

`CSCC[C@@H]1NC(=O)CNC(=O)[C@H]([C@@H](C)O)NC(=O)[C@@H]2CCCN2C(=O)[C@H](CCSC)NC(=O)CNC(=O)[C@H](CC(N)=O)NC(=O)[C@H](CC(N)=O)NC(=O)[C@H](Cc2ccc(O)cc2)NC(=O)[C@H](C(C)C)NC(=O)[C@H](CCCNC(=N)N)NC(=O)[C@@H](NC(=O)[C@H](CCCNC(=N)N)NC(=O)[C@H](Cc2c[nH]cn2)NC(=O)[C@H](CCCCN)NC(=O)[C@H](CCCCN)NC(=O)[C@H](CCCNC(=N)N)NC(=O)[C@@H](N)CCCCN)CSSC[C@@H](C(=O)O)NC(=O)[C@H](Cc2c[nH]c3ccccc23)NC(=O)[C@H](CCCNC(=N)N)NC(=O)[C@H](C)NC1=O` [Y19A] (H-KRKKHRCRVYNNGMPTGMARWC-OH; disulfide 7-22): the “Activity (Minimum Inhibitory Concentration, MIC)” value is reported as 1 µM.

The assay is the same for the next values; noted with them: S. aureus DPC5246, agar well diffusion MIC.
Consider KRKKHRARVYNNGMPTGMYRWA [C7A-C22A], for which the “fold reduction in activity compared with bactofencin A (wild type)” value is 16 fold.

For `CSCC[C@@H]1NC(=O)CNC(=O)[C@H]([C@@H](C)O)NC(=O)[C@@H]2CCCN2C(=O)[C@@H](CCSC)NC(=O)CNC(=O)[C@H](CC(N)=O)NC(=O)[C@H](CC(N)=O)NC(=O)[C@H](Cc2ccc(O)cc2)NC(=O)[C@H](C(C)C)NC(=O)[C@H](CCCNC(=N)N)NC(=O)[C@@H](NC(=O)[C@H](CCCNC(=N)N)NC(=O)[C@H](Cc2c[nH]cn2)NC(=O)[C@H](CCCCN)NC(=O)[C@H](CCCCN)NC(=O)[C@H](CCCNC(=N)N)NC(=O)[C@@H](N)CCCCN)CSSC[C@@H](C(=O)O)NC(=O)[C@H](Cc2c[nH]c3ccccc23)NC(=O)[C@H](CCCNC(=N)N)NC(=O)[C@H](Cc2ccc(O)cc2)NC1=O` [M14Md] (H-KRKKHRCRVYNNG[dM]PTGMYRWC-OH; disulfide 7-22; N-terminus assumed), the “fold reduction in activity compared with bactofencin A (wild type)” value is on record as 63 fold.

(Values after PMC6081437, “The potency of the broad spectrum bacteriocin, bactofencin A, against staphylococci is highly dependent on primary structure, N-terminal charge and disulphide formation” (Scientific Reports, 2018).)
